Here are results for two compounds from patent US5376637A, “Pharmaceutical preparation containing vasoactive intestinal polypeptide or its analogue” (Sanwa Kagaku Kenkyusho Co., Ltd., priority 1991, dated 1994).

The test system of experiment [1] is PCA reaction. The experiment is described as follows: Passive cutaneous anaphylaxis test (PCA reaction). Type of experiment: in vivo. The note with it: male rat. Here is the method: A rat was immunized with egg-albumin suspended in aluminum hydroxide gel in a conventional manner and a blood letting was carried out to obtain an antiserum rich in IgE.
A male rat was anesthetized with ethyl ether and hairs on back were sheared to intradermally inject by 0.1 ml of the antiserum solution (diluted to 5-folds in volume) described in Item (1), at both sides with a certain distance from a medial line on the back. After 72 hours, a mixed solution of egg albumin (5 mg/kg), 2% Evans blue and a test compound (L-Leu^17 ]-VIP-Hse or pure native type VIP) or disodium cromoglycate was injected into a vein, under anesthetized with pentobarbital. After 30 minutes from an occasion of PCA reaction, the experimental animal was killed and pealed-off the skin to obtain a piece of the skin dyed with the coloring matter.
The coloring matter was extracted in accordance with the method described by Katayama ["Microbio. Immunol.", Vol. 22, No. 2, pages 89 (1987)] and an amount thereof was measured at 620 nm in wave length to calculate an inhibition of the PCA reaction.

The test system of experiment [2] is arterial pressure. Description: Hypotensing action in anesthetized beagle dog. Type of experiment: in vivo. Particulars: injection in femoral artery, 0.02-10 μg/kg. The procedure:
In a femoral artery of anesthetized beagle dog (body weight: about 10 kg), each of VIP analogues as Test Samples was injected in a dose of 0.02-10 μg/kg and measured an arterial pressure to prepare a chart showing a relation between the dose and change in blood pressure and check an amount of dose which shall cause a reduction of 15 mmHg in blood pressure.

Where [3] appears, read: dose 0.01 mg/kg injected into a vein.
Where [4] appears, read: dose 0.1 mg/kg injected into a vein.
Setting [5] is: dose 1.0 mg/kg injected into a vein.

For the compound `O=C([O-])c1cc(=O)c2c(OCC(O)COc3cccc4oc(C(=O)[O-])cc(=O)c34)cccc2o1.[Na+].[Na+]` [Disodium cromoglycate], the “Inhibition (%) of PCA reaction” value in experiment [1] (setting [3]) came to 5%; in experiment [1] (setting [4]), 28%; in experiment [1] (setting [5]) it was 31%.

Consider `CC[C@H](C)[C@H](NC(=O)[C@H](CO)NC(=O)[C@H](CC(N)=O)NC(=O)[C@H](CC(C)C)NC(=O)[C@H](Cc1ccc(O)cc1)NC(=O)[C@H](CCCCN)NC(=O)[C@H](CCCCN)NC(=O)[C@@H](NC(=O)[C@H](C)NC(=O)[C@H](CCSC)NC(=O)[C@H](CCC(N)=O)NC(=O)[C@H](CCCCN)NC(=O)[C@H](CCCNC(=N)N)NC(=O)[C@H](CC(C)C)NC(=O)[C@H](CCCNC(=N)N)NC(=O)[C@@H](NC(=O)[C@H](Cc1ccc(O)cc1)NC(=O)[C@H](CC(N)=O)NC(=O)[C@H](CC(=O)O)NC(=O)[C@@H](NC(=O)[C@H](Cc1ccccc1)NC(=O)[C@@H](NC(=O)[C@H](C)NC(=O)[C@H](CC(=O)O)NC(=O)[C@H](CO)NC(=O)[C@@H](N)Cc1c[nH]cn1)C(C)C)[C@@H](C)O)[C@@H](C)O)C(C)C)C(=O)N[C@@H](CC(C)C)C(=O)N[C@@H](CC(N)=O)C(N)=O` [Native type VIP, vasoactive intestinal polypeptide], for which the “Inhibition (%) of PCA reaction” value in experiment [1] (setting [3]) is on record as 23%; in experiment [1] (setting [4]) it was 72%; in experiment [1] (setting [5]), 67%. For the same compound, in experiment [2], the “amount of dose causing a reduction of 15 mmHg in blood pressure, relative value (native type VIP = 100%)” value is 100%.
